PubChem BioAssay AID1919006 (Molecular Pharmacology Branch, DTP, NCI, 2023)

Test system: 885512-296-R-J2-PDC complex spheroid growth, % test/control
Test: Anticancer human tumor 885512-296-R-J2-PDC patient-derived breast carcinoma cell line growth inhibition [AhR]
Settings: for IC50: curve of first compound; for viability, T/C: stronger effect = lower value
Procedure, shortened: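 Agents were dosed in half-log steps down from roughly clinical Cmax, or from 10 microM where Cmax was unknown, alone and with AhR antagonists. Read-out: percent test/control growth of tumor spheroids containing HUVEC and MSC stromal cells.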
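Note: spheroids exposed to compounds for seven days.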

`CC1(C)CCC(CN2CCN(c3ccc(C(=O)NS(=O)(=O)c4ccc(NCC5CCOCC5)c([N+](=O)[O-])c4)c(Oc4cnc5[nH]ccc5c4)c3)CC2)=C(c2ccc(Cl)cc2)C1` + Cc1ccccc1N=Nc1ccc(NC(=O)c2ccnn2C)c(C)c1 was tested, and the IC50 (second compound 0.1 µM) was 4.21 µM, the IC50 (second compound 0.316 µM) was 4.24 µM and the IC50 (second compound 1 µM) was 4.14 µM. The IC50 (second compound 3.16 µM) was 3.05 µM, the IC50 (second compound 10 µM) was 0.288 µM and the viability, T/C (second compound 0.1 µM, first compound 0.0316 µM) was 107%. The viability, T/C (second compound 0.1 µM, first compound 0.1 µM) was 85.4%, the viability, T/C (second compound 0.1 µM, first compound 0.316 µM) was 103% and the viability, T/C (second compound 0.1 µM, first compound 1 µM) was 90.2%. It also gave a viability, T/C (second compound 0.1 µM, first compound 3.16 µM) of 61.4%, a viability, T/C (second compound 0.1 µM, first compound 10 µM) of 16.1% and a viability, T/C (second compound 0.316 µM, first compound 0.0316 µM) of 109%. For the same compound, the viability, T/C (second compound 0.316 µM, first compound 0.1 µM) was 116%, the viability, T/C (second compound 0.316 µM, first compound 0.316 µM) was 102% and the viability, T/C (second compound 0.316 µM, first compound 1 µM) was 85.1%. It also gave a viability, T/C (second compound 0.316 µM, first compound 3.16 µM) of 63.7%, a viability, T/C (second compound 0.316 µM, first compound 10 µM) of 15.8% and a viability, T/C (second compound 1 µM, first compound 0.0316 µM) of 97.9%. For the same compound, the viability, T/C (second compound 1 µM, first compound 0.1 µM) was 97.8%, the viability, T/C (second compound 1 µM, first compound 0.316 µM) was 94.2% and the viability, T/C (second compound 1 µM, first compound 1 µM) was 86%. The viability, T/C (second compound 1 µM, first compound 3.16 µM) was 60.4%, the viability, T/C (second compound 1 µM, first compound 10 µM) was 15.5% and the viability, T/C (second compound 3.16 µM, first compound 0.0316 µM) was 93.8%. It also gave a viability, T/C (second compound 3.16 µM, first compound 0.1 µM) of 83.1%, a viability, T/C (second compound 3.16 µM, first compound 0.316 µM) of 83.3% and a viability, T/C (second compound 3.16 µM, first compound 1 µM) of 73.3%. The viability, T/C (second compound 3.16 µM, first compound 3.16 µM) was 48.3%, the viability, T/C (second compound 3.16 µM, first compound 10 µM) was 14.9% and the viability, T/C (second compound 10 µM, first compound 0.0316 µM) was 46.4%. It also gave a viability, T/C (second compound 10 µM, first compound 0.1 µM) of 53.8%, a viability, T/C (second compound 10 µM, first compound 0.316 µM) of 53.2% and a viability, T/C (second compound 10 µM, first compound 1 µM) of 44.6%. It also gave a viability, T/C (second compound 10 µM, first compound 3.16 µM) of 40.2% and a viability, T/C (second compound 10 µM, first compound 10 µM) of 15.7%.
